Like-named read-outs stand apart in the source and are kept apart here.
How the values were obtained:
[1] = system: HPAF-II cells; test: Soft agar assay, HPAF-II; format: cell-based; settings: for IC50: Homo sapiens
Protocol: (§1) AsPC-1 cells were maintained in RPMI164 supplemented with 10% FBS, 2 mM L-glutamine and P/S (100 units/ml penicillin and 100 μg/ml streptomycin). HPAF-II cells were maintained in MEM (Eagles′) supplemented with 10% FBS, 2 mM L-glutamine and P/S (100 units/ml penicillin and 100 μg/ml streptomycin). CFPAC-1 cells were maintained in Iscove MEM supplemented with 10% FBS, 2 mM L-glutamine and P/S (100 units/ml penicillin and 100 μg/ml streptomycin).
(§2) 600 μl of 0.6% agar was added to 24-well plate to form the base layer. Then a middle layer of 0.36% agar (containing 5000 cells and serially diluted compound) was added on to the base layer. Finally 500 μl of fresh growth medium was added to the top of the middle layer. The plates were incubated at 37° C. with 5% carbon dioxide in a humidified incubator for 2 weeks. Formation of colonies was observed using a light microscope. When the colony size was larger than 500 μm, 70 μl MTT (5 mg/ml) was added to each well and the plates were incubated at 37° C. for at least 2 hours. Colonies were counted with GelCount® instrument. The colony counts were plotted against compound concentrations using the GraphPad Prism software. The software was also used to perform non-linear curve fitting and calculation of compound concentration that inhibited 50% colony formation.

[2] = system: V5-tagged Wnt3a; test: Wnt3A palmitoylation assay; format: cell-based; settings: 100 nM compound, HeLa cells, FIG. 4
Text: Wnt3A Palmitoylation Assay:
The assay used to determine the inhibition of the palmitoylation of Wnts by compound was described by Yap et al, (Yap MC, Kostiuk MA, Martin DD, Perinpanayagam MA, Hak PG, Siddam A, Majjigapu JR, Rajaiah G, Keller BO, Prescher JA, Wu P, Bertozzi CR, Falck JR, Berthiaume LG. 2010. Rapid and selective detection of fatty acylated proteins using omega-alkynyl-fatty acids and click chemistry. J Lipid Res. 51(6):1566-1580) with some modification. 3×10^6 HeLa cells were seeded in 10 cm culture dish and incubated at 37° C. overnight. […] After six hours, the cells were washed with PBS and treated with 100 μM alkyne palmitate in medium with 5% BSA. 100 nM compound or DMSO was added and the cells were incubated overnight at 37° C. The cells were lyzed and 600 μg cell lysate was collected and incubated with anti-V5 antibody (Invitrogen) followed by the pull down of V5-Wnt3a with the addition of Protein A/G agarose beads (Thermo scientific). The pulled down lysates containing V5-Wnt3a was click-reacted with biotin-azide (Invitrogen). The biotin-labelled protein lysate was then separated on SDS-PAGE and transferred to a nitrocellulose membrane. The membrane was incubated with primary anti-V5 antibody, followed by secondary anti-mouse Dylight 680 (Thermo scientific) to detect V5-Wnt3a. […]

[3] = system: AsPC-1 cells; test: Soft agar assay, AsPC-1; format: cell-based; settings: for IC50: Homo sapiens, ASPC1
Protocol: as §1, §2

[4] = system: mammalian PORCN; test: PORCN-null HT1080 cells transfected with mammalian PORCN, WNT3A, STF reporter; format: cell-based; settings: luciferase, FIG. 1
Protocol: PORCN-null HT1080 cells were transfected with mammalian or Xenopus PORCN expression plasmids, along with WNT3A, STF reporter and mCherry as transfection control. 6 hours after transfection, cells were treated with the compounds or DMSO as indicated, and the following day assayed for luciferase. Xenopus PORCN was resistant to the inhibitory effects of compounds.

[5] = system: CFPAC-1 cells; test: Soft agar assay, CFPAC-1; format: cell-based; settings: for IC50: Homo sapiens
Protocol: as §1, §2

[6] = system: HEK293-STF3A cells; test: STF3A assay (luciferase reporter); format: cell-based, Human; settings: Homo sapiens, 24 h, 1 day of treatment
How it was run: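 HEK293 cells carrying the STF reporter and expressing Wnt3A, seeded 2×10^4 per well overnight, then treated 1 day with compound at final 50 μM to 1.5 nM. Luciferase activity read by luminescence after Steady-Glo reagent, 10 min at room temperature.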

[7] = system: MMTV-Wnt1 tumor; test: MMTV-Wnt1 mouse model; format: in vivo; settings: for % T/C / % TGI / NTRD / T/C / TRD: Day 14
Protocol: 8-10 weeks old Female BALBc mice were anesthetised with 150 mg/kg Ketamine+75 mg/kg Xylazine. Under aseptic conditions, skin near the 4th mammary fat pad was incised. Mammary fat pad was tweaked with forceps and tumor fragment ˜2 mm^3 was implanted. The incision was closed using a tissue adhesive. Animals were randomised into groups of eight and treated daily with the test compounds for 14 days. Tumors were measured in two dimensions using calipers, and volume was calculated using the formula: Tumor Volume (mm^3)=[…]. Maximum tumor volume limit was 2000 mm^3.

SMILES: Cc1cc2n(n1)CCCN2C(=O)CCC(=O)Nc1ccc(-c2cccnc2)nn1 [Compound 51, 4-(2-methyl-6,7-dihydropyrazolo[1,5-a]pyrimidin-4(5H)-yl)-4-oxo-N-(6-(pyridin-3-yl)pyridazin-3-yl)butanamide]
- Maximum inhibition [1]: 97%
- IC50 ([1]; Test 1, read-out: Test 1 IC50 (colony growth inhibitory concentration)): 8 nM
- IC50 ([1]; Test 2, read-out: Test 2 IC50 (colony growth inhibitory concentration)): 10 nM
- IC50 ([1]; mean of two independent experiments, read-out: Mean IC50 (colony growth inhibitory concentration)): 9 nM
- Palmitoylation of Wnt3a [2]: inhibited
- Maximum inhibition ([3]; AsPC-1): 76%
- IC50 ([3]; AsPC-1, Test 1, read-out: Test 1 IC50 (colony growth inhibitory concentration)): 24 nM
- IC50 ([3]; AsPC-1, Test 2, read-out: Test 2 IC50 (colony growth inhibitory concentration)): 10 nM
- IC50 ([3]; AsPC-1, mean of two independent experiments, read-out: Mean IC50 (colony growth inhibitory concentration)): 17 nM
- inhibition of the activity of mammalian porcupine [4]: inhibit the activity of mammalian porcupine
- Maximum inhibition ([5]; CFPAC-1): 79%
- IC50 ([5]; CFPAC-1, Test 1, read-out: Test 1 IC50 (colony growth inhibitory concentration)): 58 nM
- IC50 ([5]; CFPAC-1, Test 2, read-out: Test 2 IC50 (colony growth inhibitory concentration)): 39 nM
- IC50 ([5]; CFPAC-1, mean of two independent experiments, read-out: Mean IC50 (colony growth inhibitory concentration)): 49 nM
- IC50 [6]: < 100 nM
- % T/C ([7]; 1 mg/Kg daily): 37.5%
- % TGI ([7]; 1 mg/Kg daily): 68%
- NTRD ([7]; 1 mg/Kg daily): 1/8
- T/C ([7]; 1 mg/Kg daily): 0.375
- TRD ([7]; 1 mg/Kg daily): 0/8
- % T/C ([7]; 3 mg/Kg daily): 38.3%
- % TGI ([7]; 3 mg/Kg daily): 67%
- NTRD ([7]; 3 mg/Kg daily): 0/8
- T/C ([7]; 3 mg/Kg daily): 0.383
- TRD ([7]; 3 mg/Kg daily): 0/8
- % T/C ([7]; 10 mg/Kg daily): 16.0%
- % TGI ([7]; 10 mg/Kg daily): 91%
- NTRD ([7]; 10 mg/Kg daily): 0/8
- T/C ([7]; 10 mg/Kg daily): 0.160
- TRD ([7]; 10 mg/Kg daily): 0/8
- tumor growth ([7]; treated mice, FIG. 2 and FIG. 3): decreased tumor growth in all the treated mice
